Experimental data reported in patent publication US20240141294A1, “CGMP COMPLIANT PRODUCTION AND EXPANSION OF PLASMACYTOID DENDRITIC CELLS FROM HEMATOPOIETIC STEM AND PROGENITOR CELLS” (AARHUS UNIVERSITET, priority 2021, published 2024).

System: HSPC-pDCs
Assay: Phenotypic analysis of pDC surface markers by flow cytometry
Format: cell-based, human
Conditions: pDCs isolated from AA-supplemented culture at day 16
Method: Flow cytometry was used to immunophenotype pDCs. Briefly, cells were spun down and resuspended in 100 μL PBS. Cells were stained with Ghost Dye Red 780 Viability Dye (13-0865, Tonbo) for 30 min before being washed with FACS buffer (PBS with 2% FCS and 1 mM EDTA). Cells were subsequently resuspended in 50 μL FACS buffer and stained with the following antibodies: FITC anti-human Lineage Cocktail (CD3 (UCHT1), CD14 (HCD14), CD16 (3G8), CD19 (HIB19), CD20 (2H7) and CD56 (HCD56), 348801, BioLegend), APC anti-human CD11c (3.9, 20-0116-T100, TonboBio), PE anti-human CD123 (6H6, 12-1239-42, eBioscience), PE-Cy7 anti-human CD303 (201a, 25-9818-42, eBioscience). Cells were stained for 30 min before being washed three times in FACS buffer. To validate the expression CD34+ on HSPCs, cells were stained with PE-Cy7 anti-human CD34 (581, 343516, BioLegend) for 30 min, washed three times in FACS buffer before being resuspended in FACS buffer. PI was added to the cells as a viability dye in a concentration of 1:100 (13-6990 Tonbo Bioscience). Fluorescence intensities were measured using the Quanteon flow cytometer equipped with 4 lasers (405 nm, 488 nm, 561 nm, and 637 nm) and 29 photomultipliers (PMT) detectors or the NovoCyte flow cytometer with two lasers (488 nm and 561 nm) and 12 PMT detectors (ACEA Biosciences, Inc.). Data analysis was done using FlowJo (Version 10, Tree Star, Ashland, OR, USA). […]

## O=C1O[C@H]([C@@H](O)CO)C(O)=C1O [ascorbic acid]
  surface expression levels of CD303: lower expression levels
